Read-outs that look alike come from different tables or passages of the source.
Legend:
[1] = test system: leukemic stem cell clone ABM42 C31; test: MTS viability assay, murine leukemic stem cell line; assay type: cell-based; details: serial two-fold dilutions starting from 10 μM, 24 h, FIG. 1
Experimental: (§1) Leukemic stem cell lines and normal hematopoetic stem cell lines are separately maintained in cultures as described above. For viability assays, the cell lines are passed 24-36 hours prior to use in the assay, in order to test for sensitivity to specific drugs with cells in log-phase growth. Cells are plated in 96-well flat bottom plates (Greiner, Switzerland), at a concentration of 10^4 cells for the leukemic stem cell lines and normal hematopoietic stem cell lines, or 10^5 for the primary human fetal cord blood cells. Cells are plated in a final volume of 200 μl containing RPMI-1640 growth medium, supplemented as described above. Cells are either plated in medium alone, or medium containing a drug of interest. All drugs are tested in 11 different concentrations in order to derive sensitivity curves. The individual conditions were set up in triplicate wells, and at least three independent assays are performed to validate a specific observation.
(§2) The cells are cultured with the specific drug concentration for 24 hours at 37° C. in a 5% CO2 atmosphere. After culturing the cells under the experimental conditions for 23 hours, the wells are supplemented with 10 μl of the CellTiter 96 Aqueous Non-radioactive Cell Proliferation MTS reagent (Promega, Madison Wis.), and incubated in a 37° C. incubator (5% CO2) for 60 minutes. All plates are analyzed using a plate reader (Molecular Devices) using a filter set for O.D. 405. All values are used to derive standard errors, and compared among the different independent assays.
(§3) These compounds are screened for the ability to inhibit leukemic stem cell viability but not affect normal hematopoietic stem cells by incubating the compounds with cells using serial two-fold dilutions starting from 10 μM stocks.

[2] = test system: normal murine hematopoietic stem cell line "BL/6 BM"; test: MTS viability assay, normal murine hematopoietic stem cell line; assay type: cell-based; details: serial two-fold dilutions starting from 10 μM, 24 h, FIG. 1
Experimental: as §1, §2, §3

[3] = test system: leukemic stem cells; test: Flow cytometric analysis of apoptosis induction (7AAD); assay type: cell-based; details: 10 μM; 24 h; versus normal murine hematopoietic stem cell lines; FIG. 2
Experimental: For analysis of apoptosis in leukemic stem cells or in normal hematopoietic stem cell lines, cells are cultured (in triplicate) with the specific drug concentration for 24 hours at 37° C. in a 5% CO2 atmosphere. Cell suspensions obtained from cultured cells are washed twice in FACS buffer, incubated for 20 minutes with 4 μM 7-aminoactinomycin-D (7AAD, Calbiochem), and washed with FACS buffer. Stained cells are resuspended in PBS and analyzed immediately on a flow cytometer.
4-Amino-7-[(2R,3S,4S,5R)-3,4-dihydroxy-5-(hydroxymethyl)oxolan-2-yl]-6-hydrazinylpyrrolo[5,4-d]pyrimidine-5-carboxamide, 2-[(2-chloro-4-nitrophenanthridin-6-yl)amino]ethanol, and 5-(anthracen-1-ylmethylidene)-2-sulfanylidene-1,3diazinane-4,6-dione preferentially kill murine leukemic stem cell viability vs. normal murine hematopoietic stem cell line. These compounds are screened to determine whether the effect of the compounds on reduced viability was due to inhibiting proliferation, or direct killing through apoptosis. The cells are analyzed by flow cytometric analysis for the exclusion of 7-aminoactinomycin-D (7AAD). At a concentration of 10 μM, cells are incubated in a 5% CO2 atmosphere for 24 h. After two washes in 1×PBS the cells are incubated with 4 μM 7-aminoactinomycin-D (7AAD) for 20 min.

[4] = test system: leukemic cell line (U937); test: MTS viability assay, human leukemic cell line; assay type: cell-based; details: serial two-fold dilutions beginning with 10 μM, 24 h, FIG. 3
Experimental: as §1, §2
These compounds are incubated with cells using serial two-fold dilutions beginning with 10 μM.

[5] = test system: ABM 42 C31 leukemic stem cells; test: Therapeutic trial: survival of mice transplanted with leukemic stem cells (pre-clinical model of AML); assay type: in vivo; details: 7 daily injections of 250 ul of 10 uM solution, intravenously, from clinical signs (about 15 d post-transplant); FIG. 5
From the text: Groups of 3-5 mice are utilized for each of the experimental protocols. Transplantation of tumors is done by injecting 10^3 cells intravenously into cohorts of sub-lethally irradiated (450R)C57/BL6/Rag −/− mice ranging in age from 4-6 weeks. The mice are monitored daily for clinical signs of disease. These clinical signs included externally evident splenomegaly, a hunched posture and reduce mobility, labored breathing, dehydration, scruffy fur and an ascending paralysis in a minority of cases. […] The mice then receive daily injections of the indicated agents for 7 days. Mice are held indefinitely to ascertain rates of survival.
Into cohorts of sublethally irradiated mice are transplanted 10^3 ABM 42 C31 leukemic stem cells. Treatment of the mice when they develop clinical signs of disease (hunched posture, rapid breathing, scruffled fur at approximately 15d post-transplant). Mice receive 7 daily injections of 250 ul XPBS solutions containing 10 uM concentrations of 4-Amino-7-[(2R,3S,4S,5R)-3,4-dihydroxy-5-(hydroxymethyl)oxolan-2-yl]-6-hydrazinylpyrrolo[5,4-d]pyrimidine-5-carboxamide, 2-[(2-chloro-4-nitrophenanthridin-6-yl)amino]ethanol, and 5-(anthracen-1-ylmethylidene)-2-sulfanylidene-1,3diazinane-4,6-dione. After the 7th day the mice are monitored for survival. FIG. 5 illustrates that administration of the compounds delay mortality in a pre-clinical model of AML disease.

[6] = assay type: in vivo; details: immune deficient mice reconstituted with murine hematopoetic stem cell lines; 7 daily injections of 1 mM concentrations
Experimental: Immune deficient mice that are reconstituted with the murine hematopoetic stem cell lines are injected with 10,000× the effective in vitro concentration of a drug. Briefly, mice are given 7 daily injections of 1 mM concentrations of one of 4-Amino-7-[(2R,3S,4S,5R)-3,4-dihydroxy-5-(hydroxymethyl)oxolan-2-yl]-6-hydrazinylpyrrolo[5,4-d]pyrimidine-5-carboxamide, 2-[(2-chloro-4-nitrophenanthridin-6-yl)amino]ethanol, and 5-(anthracen-1-ylmethylidene)-2-sulfanylidene-1,3diazinane-4,6-dione. After the 7th day the mice are monitored for overt side-effects and survival.

[7] = mouse, in vivo
[8] = Bone marrow toxicity in mice (FIG. 17); details: compared to mice treated with methotrexate (MTX)
[9] = test system: primary unmanipulated fetal cord blood cells; test: MTS viability assay, primary fetal cord blood cells; assay type: cell-based, human; details: at the drug concentrations tested (two-fold dilutions from 10 μM), 24 h, FIG. 4
Experimental: as §1
The cells are cultured with the specific drug concentration for 24 hours at 37° C. in a 5% CO2 atmosphere. […] All plates are analyzed using a plate reader (Molecular Devices) using a filter set for O.D. 405. […]

[10] = test system: leukemic stem cells; test: Killing of leukemic stem cells (FIG. 6); assay type: cell-based
[11] = test system: normal hematopoietic stem cells; test: Effect on normal hematopoietic stem cells (FIG. 6); assay type: cell-based

| Structure (SMILES) | viability of leukemic stem cells [1] | viability of normal murine hematopoietic stem cell line [2] | apoptosis induction (7AAD positive/GFP negative) [3] | viability of human leukemic cell lines [4] | survival of mice transplanted with leukemic stem cells [5] | mortality [6] | bone marrow toxicity [7] | bone marrow toxicity [8] | viability of primary unmanipulated fetal cord blood cultures [9] | effect on leukemic stem cells [10] | effect on normal hematopoietic stem cells [11] |
| --- | --- | --- | --- | --- | --- | --- | --- | --- | --- | --- | --- |
| O=[N+]([O-])c1cc(Cl)cc2c1nc(NCCO)c1ccccc12 [2-[(2-chloro-4-nitrophenanthridin-6-yl)amino]ethanol] | preferentially inhibited viability | but not the normal murine hematopoietic stem cell line | induce apoptosis preferentially in leukemic stem cells | preferentially inhibited viability of the leukemic cell lines | increase survival | none of the mice died | less bone marrow toxicity | – | – | – | – |
| NNc1c(C(N)=O)c2c(N)ncnc2n1[C@@H]1O[C@H](CO)[C@@H](O)[C@@H]1O [4-amino-7-[(2R,3S,4S,5R)-3,4-dihydroxy-5-(hydroxymethyl)oxolan-2-yl]-6-hydrazinylpyrrolo[5,4-d]pyrimidine-5-carboxamide] | preferentially inhibited viability | but not the normal murine hematopoietic stem cell line | induce apoptosis preferentially in leukemic stem cells | preferentially inhibited viability of the leukemic cell lines | increase survival | none of the mice died | – | less bone marrow toxicity | – | – | – |
| O=C1NC(=S)NC(=O)C1=Cc1cccc2cc3ccccc3cc12 [5-(anthracen-1-ylmethylidene)-2-sulfanylidene-1,3diazinane-4,6-dione] | preferentially inhibited viability | but not the normal murine hematopoietic stem cell line | induce apoptosis preferentially in leukemic stem cells | preferentially inhibited viability of the leukemic cell lines | increase survival | none of the mice died | – | less bone marrow toxicity | no decrease in viability | – | – |
| CN(Cc1cnc2nc(N)nc(N)c2n1)c1ccc(C(=O)N[C@@H](CCC(=O)O)C(=O)O)cc1 [methotrexate] | – | – | – | – | – | – | – | – | – | killed | killed |
